“Also recorded” adds a separate entry of the source. Where two headings read alike, the source gives them in different places.
Assays:
[1] = system: STZ-diabetic rats; assay: Reversal protocol: AT1 antagonist from 12 wks post-STZ, morphine antinociception; conditions: tested at 16 wks post-STZ
Method: STZ-diabetic rats (n=18) were allocated to one of three experimental groups. Groups one and two received once-daily oral administration of antihypertensive doses of one of the AT1-antagonists, viz candesartan (2.0 mg/kg/day)or losartan (20 mg/kg/day), commencing at 12 weeks post-STZ administration (day 0). The third group (control STZ-diabetic rats) received no treatment.
(§1) The mean (±SEM) percentage maximum AUC (% Max AUC) was calculated according to the following formula: [formula]
The Mann-Whitney test was used to compare %MAX AUC values between treatment groups. The statistical significance criterion was p<0.05.

[2] = system: STZ-diabetic rats; conditions: cited from earlier work
[3] = system: non-diabetic rats; conditions: control non-diabetic rats; previously determined by Saini (2000); cited from earlier work
[4] = system: non-diabetic rats; assay: Opioid-mediated antinociception (Von Frey, % MPE) in non-diabetic control rats; format: in vivo, rat; conditions: for ED50: Rattus norvegicus
Method: A second group of STZ-diabetic rats received vehicle (DMSO:water 10:90) by oral gavage (protocol-control rats). In the third group, weight-matched, naive, non-diabetic control rats (non-diabetic candesartan control rats) were also treated with candesartan for one wk prior to opioid antinociceptive testing to determine any intrinsic effects of candesartan on baseline pain scores and on opioid-mediated antinociception.
The statistical significance criterion was p<0.05.

[5] = system: STZ-diabetic rats; assay: Opioid-mediated antinociception (Von Frey, % MPE) in STZ-diabetic rats; conditions: for ED50: Rattus norvegicus; for timing of the peak antinociceptive effect: morphine 6.1 mg/kg s.c.; for time to reach peak levels of antinociception: s.c. morphine, high-dose oral candesartan-treated STZ-diabetic rats
Method: In all cases, opioids were administered by a single s.c. injection (100 μL) into the dorsal region at the base of the neck whilst under light CO2/O2 (50:50%) anaesthesia using a 250 μL Hamilton syringe. […] By contrast, the opioid-naïve, weight-matched, non-diabetic candesartan control rats were given high-dose oral candesartan (2 mg/kg/day) for 7 days before opioid testing was initiated.
Immediately prior to administration of s.c. bolus doses of either opioid, baseline paw withdrawal thresholds were quantified using VFFs in an identical manner to the weekly baseline Von Frey monitoring described above. Following s.c. opioid administration, VFF assessments were performed at the following post-dosing times: 15, 30, 45, 60, 90, 120 and 180 min.
The VFF scores for individual rats were converted to the Percentage of the Maximum Possible Antinociceptive Effect (% MPE), according the following formula (Brady & Holtzmann, 1982): [formula]
as §1
ED50 estimation was facilitated by inclusion of the theoretical maximum and minimum % Max AUC values. The Mann-Whitney test was used to compare %MPE AUC ED50 values between treatment groups. The statistical significance criterion was p<0.05.

[6] = target: T1, CYP2D6 (Homo sapiens, UniProt P10635); conditions: humans, CYP2D6-mediated; cited from earlier work
T1 construct: low extent of CYP2D6-mediated O-demethylation of oxycodone to oxymorphone in humans; host or cells: human subjects (in vivo metabolism)

[7] = system: STZ-diabetic rats; conditions: given to rats 4 wks after induction of diabetes with STZ (Maxfield et al., 1993); cited from earlier work
[8] = system: STZ-diabetic rats; assay: Von Frey assessment of tactile allodynia (paw withdrawal threshold); format: in vivo, rat
Method: Candesartan treatment was initiated after STZ administration (day 0) but prior to the onset of diabetes. Specifically, candesartan-treated rats received this drug via once-daily oral gavage in one of two dosages: viz a high-dose (2 mg/kg/day) or a low dose (0.5 mg/kg/day). The 2 mg/kg/day dose was chosen on the basis that it is an anti-hypertensive dose both in rats with perfused Ang II-induced hypertension and also in the spontaneously hypertensive rat (SHR) (Nishikawa et al., 1994, Blood Press, Suppl 5: 7-14). The low-dose ([…]) was included to investigate whether a sub-therapeutic dose (in terms of anti-hypertensive activity) of candesartan was efficacious for the treatment of PDN. Once initiated, oral once-daily candesartan was administered every day for 24 wks.
Tactile allodynia, the defining symptom of PDN, manifests as a hypersensitive response to non-noxious stimuli such as touch or light pressure, and was quantified using Von Frey filaments (VFFs). […] However, indirect methods have a questionable correlation with symptomatic severity (Malik et al., 1998, supra; Malik et al., 2001, supra). Therefore direct quantification of symptom severity using VFF assessment was used to obtain clinically relevant end points.
For each antinociceptive testing session, rats were placed in wire mesh metabolic cages (20 cm×20 cm×20 cm) and allowed to acclimatise to the test environment for approximately 10-15 min prior to the commencement of experiments. Calibrated VFFs, delivering a force in the range 2-20 g, were then applied to the plantar surface of the hind-paw to determine the paw withdrawal thresholds defined as the minimum force necessary to elicit a brisk foot withdrawal reflex. Commencing with the VFF delivering the lowest mechanical force, the filament was applied to the plantar surface of the footpad until buckling of the filament was observed. Absence of a response after approximately 3 s prompted application of the next VFF of increasing force to the footpad.
The onset and progression of the development of tactile allodynia in all STZ-diabetic rats were quantified by once weekly VFF paw withdrawal testing. Specifically for each rat, three separate assessments of paw withdrawal thresholds were undertaken, each approximately 5 min apart.

[9] = Body weight, metabolic signs and general health of STZ-diabetic rats; format: in vivo, rat; conditions: 24 wks post-STZ rats, cessation of chronic candesartan 2.0 mg/kg/day
Source text: Induction of STZ-diabetes produced an initial ≈5-10% reduction in (mean±SEM) body weight from 233 (±1.99) g pre-STZ administration to 218 (±3.28) g at 4 wks post-STZ, followed by a gradual return to the pre-study weight over the ensuing 6-mth study period (FIG. 1).
One rat died 5 wks after the cessation of candesartan therapy.

[10] = oxycodone 2.0 mg/kg s.c., candesartan (0.5 mg/kg/day) treated STZ-diabetic rats, 12 wks post-STZ
[11] = oxycodone 2.0 mg/kg s.c., candesartan (0.5 mg/kg/day) treated STZ-diabetic rats, 21 wks post-STZ
[12] = oxycodone 2.0 mg/kg s.c., candesartan (0.5 mg/kg/day) treated STZ-diabetic rats, 24 wk post-STZ
[13] = oxycodone 2.0 mg/kg s.c., control STZ-diabetic rats, 9 wks post-STZ
[14] = oxycodone 2.0 mg/kg s.c., control STZ-diabetic rats, 12 wks post-STZ
[15] = oxycodone […] s.c., candesartan (0.5 mg/kg/day) treated STZ-diabetic rats, 3 wks post-STZ
[16] = oxycodone […] s.c., candesartan (0.5 mg/kg/day) treated STZ-diabetic rats, 9 wks post-STZ
[17] = oral candesartan 0.5 mg/kg/day, by 22 wks post-STZ
[18] = oral candesartan 2 mg/kg/day once daily, 24 wk post-STZ study period, relative to non-diabetic control rats

T1 sequence (P10635 whole entry): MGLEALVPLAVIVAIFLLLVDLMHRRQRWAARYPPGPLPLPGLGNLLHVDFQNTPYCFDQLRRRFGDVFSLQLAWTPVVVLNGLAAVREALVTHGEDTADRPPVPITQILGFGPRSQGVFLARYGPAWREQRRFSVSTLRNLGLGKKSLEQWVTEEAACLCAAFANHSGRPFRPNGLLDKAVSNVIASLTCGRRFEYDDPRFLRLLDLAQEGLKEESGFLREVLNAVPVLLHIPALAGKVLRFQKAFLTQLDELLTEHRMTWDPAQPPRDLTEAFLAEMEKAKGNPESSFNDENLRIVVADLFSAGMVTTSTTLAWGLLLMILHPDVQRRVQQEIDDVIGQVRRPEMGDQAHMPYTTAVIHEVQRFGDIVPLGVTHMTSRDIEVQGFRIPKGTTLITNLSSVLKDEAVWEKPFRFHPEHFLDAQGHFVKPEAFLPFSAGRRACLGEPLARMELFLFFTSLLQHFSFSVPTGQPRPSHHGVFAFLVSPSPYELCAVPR

CCCCc1nc(Cl)c(CO)n1Cc1ccc(-c2ccccc2-c2nnn[nH]2)cc1 [losartan]
Effect on morphine's antinociceptive effects (s.c. morphine 6.1 mg/kg) ([1]; oral losartan 20 mg/kg/day for 4 wks commencing 12 wks post-STZ): preserved morphine's antinociceptive effects; also recorded: morphine sensitivity was preserved

CN1CC[C@]23c4c5ccc(O)c4O[C@H]2[C@@H](O)C=C[C@H]3[C@H]1C5 [morphine]
antinociceptive efficacy ([2]; s.c. morphine, control STZ-diabetic rats by 12 wks post-STZ (Smith et al., 2001)): completely abolished | ED50 morphine dose ([2]; s.c., STZ-diabetic rats at 3 and 9 wks post-STZ, previously determined by Smith et al. (2001)): 6.1 mg/kg | ED50 of s.c. morphine (single bolus dose) [3]: ~2.4 mg/kg | ED50 ([4]; read-out: ED50 of s.c. morphine, non-diabetic rats on high-dose oral candesartan 2.0 mg/kg/day): 2.3 ± 0.3 mg/kg | ED50 ([4]; sc, read-out: mean (±SEM) ED50 of s.c. morphine, control untreated non-diabetic rats): 2.9 mg/kg | time to achieve the peak antinociceptive effect ([4]; morphine 2.4 mg/kg s.c., control non-diabetic rats): 45 min | ED50 ([5]; 504 h, read-out: mean (±SEM) ED50 of s.c. morphine): 2.5 mg/kg | ED50 ([5]; 1512 h, read-out: mean (±SEM) ED50 of s.c. morphine): 2.3 mg/kg | ED50 ([5]; 2016 h, read-out: mean (±SEM) ED50 of s.c. morphine): 2.1 mg/kg | ED50 ([5]; 4032 h, read-out: mean (±SEM) ED50 of s.c. morphine): 2.4 mg/kg | antinociceptive response evoked by morphine ([5]; control STZ-diabetic rats of the present studies, 12 wks post-STZ and beyond): marked decrease | time to achieve the peak antinociceptive effect ([5]; morphine 2.4 mg/kg s.c., STZ-diabetic rats 24 wks post-STZ, oral candesartan 2.0 mg/kg/day): 60 min | timing of the peak antinociceptive effect ([5]; control STZ-diabetic rats, 3 wks post-STZ): approximately 45 min | timing of the peak antinociceptive effect ([5]; control STZ-diabetic rats, 9 wks post-STZ): 60 min | time to reach peak levels of antinociception ([5]; 3 wks post-STZ): 45 min | time to reach peak levels of antinociception ([5]; beyond 12 wks post-STZ): 60 min

COc1ccc2c3c1O[C@H]1C(=O)CC[C@@]4(O)[C@@H](C2)N(C)CC[C@]314 [oxycodone]
decrease in potency relative to non-diabetic control rats ([2]; s.c. oxycodone, STZ-diabetic rats over 24 wk study (Smith et al., 2001)): 4 fold | fraction of each dose O-demethylated to oxymorphone [6]: < 5% | ED50 ([4]; sc, control untreated non-diabetic rats, read-out: mean (±SEM) ED50 of s.c. oxycodone): 1.2 mg/kg | ED50 ([4]; non-diabetic control rats on high-dose oral candesartan 2.0 mg/kg/day, read-out: ED50 of s.c. oxycodone): 1.1 mg/kg | Mean (±SEM) % MPE AUC ([4]; oxycodone […] s.c., candesartan (2.0 mg/kg/day) treated non-diabetic rats): 155 (±8.5) % MPE.h | ED50 ([5]; 504 h, read-out: mean (±SEM) ED50 of s.c. oxycodone): 1.4 mg/kg | ED50 ([5]; 1512 h, read-out: mean (±SEM) ED50 of s.c. oxycodone): 1.3 mg/kg | ED50 ([5]; 4032 h, read-out: mean (±SEM) ED50 of s.c. oxycodone): 1.1 mg/kg | ED50 ([5]; sc, 504 h, read-out: approximate ED50 oxycodone dose): ~1.5 mg/kg | ED50 ([5]; sc, 2016 h, read-out: approximate ED50 oxycodone dose): ~2 mg/kg | ED50 ([5]; sc, 4032 h, read-out: approximate ED50 oxycodone dose): ~3.2 mg/kg | Mean (±SEM) % MPE AUC [5, 10]: 116 (±8.2) % MPE.h | Mean (±SEM) dose normalised % MPE AUC [5, 10]: 67.70 (±4.111) % MPE AUC.h.kg.mg^−1 | Mean (±SEM) % MPE AUC [5, 11]: 171 (±8.3) % MPE.h | Mean (±SEM) dose normalised % MPE AUC [5, 11]: 85.34 (±4.134) % MPE AUC.h.kg.mg^−1 | Mean (±SEM) % MPE AUC [5, 12]: 145 (±13.0) % MPE.h | Mean (±SEM) dose normalised % MPE AUC [5, 12]: 72.45 (±6.527) % MPE AUC.h.kg.mg^−1 | Mean (±SEM) % MPE AUC [5, 13]: 162 (±3.2) % MPE.h | Mean (±SEM) dose normalised % MPE AUC [5, 13]: 80.8 (±1.6) % MPE AUC.h.kg.mg^−1 | Mean (±SEM) % MPE AUC [5, 14]: 168 (±5.2) % MPE.h | Mean (±SEM) dose normalised % MPE AUC [5, 14]: 84.2 (±2.6) % MPE AUC.h.kg.mg^−1 | Mean (±SEM) % MPE AUC ([5]; oxycodone 2.2** mg/kg s.c., candesartan (2.0 mg/kg/day) treated STZ-diabetic rats, 12 wks post-STZ): 158 (±6.9) % MPE.h | Mean (±SEM) % MPE AUC ([5]; oxycodone […] s.c., STZ-diabetic rats, 4 wks candesartan (2.0 mg/kg/day) re-initiation): 157 (±8.5) % MPE.h | Mean (±SEM) % MPE AUC [5, 15]: 131 (±7.9) % MPE.h | Mean (±SEM) dose normalised % MPE AUC [5, 15]: 109.5 (±6.549) % MPE AUC.h.kg.mg^−1 | Mean (±SEM) % MPE AUC [5, 16]: 122 (±9.1) % MPE.h | Mean (±SEM) dose normalised % MPE AUC [5, 16]: 102.1 (±7.611) % MPE AUC.h.kg.mg^−1 | decrease in antinociceptive response (%MPE AUC) versus non-diabetic protocol control rats ([5]; oxycodone […] s.c., candesartan (2.0 mg/kg/day) STZ-diabetic rats, 3 wks post-STZ): ≈ 20% | Mean (±SEM) % MPE AUC ([5]; oxycodone […] s.c., candesartan (2.0 mg/kg/day) treated STZ-diabetic rats, 3 wks post-STZ): 120 (±8.9) % MPE.h | Mean (±SEM) % MPE AUC ([5]; oxycodone […] s.c., candesartan (2.0 mg/kg/day) treated STZ-diabetic rats, 9 wks post-STZ): 136 (±13.3) % MPE.h | Mean (±SEM) dose normalised % MPE AUC ([5]; oxycodone […] s.c., control STZ-diabetic rats, 3 wks post-STZ): 115.5 (±3.1) % MPE AUC.h.kg.mg^−1 | Mean (±SEM) dose normalised % MPE AUC ([5]; oxycodone […] s.c., control STZ-diabetic rats, 24 wks post-STZ): 44.1 (±2.4) % MPE AUC.h.kg.mg^−1 | decrease in oxycodone potency versus non-diabetic protocol control rats ([5]; oxycodone […], candesartan (0.5 mg/kg/day) STZ-diabetic rats, 9 wks post-STZ): 20% | decrease in potency versus protocol controls ([5]; oxycodone, candesartan (0.5 mg/kg/day) STZ-diabetic rats, by 12 wks post-STZ): ~50% | decrease in dose-normalised %MPE AUC versus protocol-control non-diabetic rats ([5]; oxycodone, low-dose candesartan (0.5 mg/kg/day) STZ-diabetic rats, 24 wks post-STZ): ~1.5 fold

CCc1cc2c(c(OCc3ccc(-c4ccccc4-c4nnn[nH]4)cc3)c1)CCCC2 [ZD 8731]
Nerve blood flow (NBF) deficits [7]: significant improvements | Reduction in nerve conduction velocity (NCV) [7]: completely reverses

candesartan
Mean (±SEM) paw withdrawal threshold ([8]; 24 wks post-STZ on oral candesartan 2.0 mg/kg/day, immediately prior to cessation): 11.9 (±0.2) g | Development of tactile allodynia (Von Frey filaments) ([8]; oral candesartan 0.5 mg/kg/day once daily for 24 wks from STZ administration): only delayed but did not prevent the development of tactile allodynia | Paw withdrawal latencies versus rats given high-dose candesartan [8, 17]: significantly lower | Paw withdrawal thresholds versus untreated STZ-diabetic control rats [8, 17]: not significantly different | Development of tactile allodynia (Von Frey filaments) ([8]; oral candesartan 2.0 mg/kg/day once daily for 24 wks from STZ administration): completely attenuated the development of tactile allodynia | Mean paw withdrawal threshold versus non-diabetic control rodents ([8]; oral candesartan 2.0 mg/kg/day, 24 wks post-STZ): not significantly different | Paw withdrawal thresholds after re-initiation of treatment ([8]; re-initiation of oral candesartan 2.0 mg/kg/day for six wks after six wks cessation): restored the paw withdrawal thresholds | Mean (±SEM) paw withdrawal threshold ([8]; six wks after cessation of chronic oral candesartan 2.0 mg/kg/day): 6.0 (±0.3) g | Mean (±SEM) paw withdrawal threshold ([8]; within two wks of re-initiation of oral candesartan 2.0 mg/kg/day): 11.3 ± 0.1 g | Physical appearance and health after cessation of treatment [9]: apparent general decline in the physical appearance and health | Effect on morphine's antinociceptive effects (s.c. morphine 6.1 mg/kg) ([1]; oral candesartan 2 mg/kg/day for 4 wks commencing 12 wks post-STZ): preserved morphine's antinociceptive effects; also recorded: morphine sensitivity was preserved | Effect on loss of morphine potency ([5]; oral candesartan 0.5 mg/kg/day once daily, relative to control untreated STZ-diabetic rats): attenuated the loss of morphine potency | Effect on temporal loss of morphine potency and efficacy [5, 18]: completely prevented the temporal loss of morphine potency and efficacy | Effect on temporal loss of oxycodone potency and efficacy [5, 18]: completely prevented the temporal loss of oxycodone potency and efficacy
